Results reported in US20230322723A1, “COMPOUNDS FOR SUPPRESSING EGFR MUTANT CANCER AND PHARMACEUTICAL USE THEREOF” (J2H BIOTECH INC., priority 2020, published 2023).

Key:
EGFR^del19+T790M+C797S = test: EGFR protein degradation test (Western blot) in Ba/F3 cells expressing mutant EGFR del19+T790M+C797S (DTC); format: cell-based; conditions: compounds at 0.1 μM and 1 μM, 24 hours, Western blot with EGFR antibody
Protocol: (§1) The ability of the compounds of the present invention to degrade the mutant EGFR protein was confirmed in Ba/F3 cells expressing normal EGFR, mutant EGFR^del19+T790M+C797S or mutant EGFR^L858R+T790M+C797S. A Western blot test using the EGFR antibody was performed.
(§2) Specifically, Ba/F3 cells expressing EGFR were cultured in RPMI 1640 (Gibco, NY, USA) containing 10% fetal bovine serum (FBS, Gibco, NY, USA). Cells expressing normal EGFR, mutant EGFR^del19+T790M+C797S or mutant EGFR^L858R+T790M+C797S were treated with the compounds of the present invention at concentrations of 0.1 μM and 1 μM, respectively, for 24 hours. After that, it was washed twice with phosphate buffered saline (PBS) and SDS-PAGE was performed with 30 μg of cell lysate. After the protein separated on the gel was transferred to a nitrocellulose membrane, the expression level of the EGFR protein was confirmed using an EGFR antibody (Santa Cruz biotechnology, Santacruz, CA, USA). EGFR bands separated by Western blotting were quantitatively analyzed with Fluo-S MultiImager (Bio-Rad, Hercules, CA, USA).

EGFR^L858R+T790M+C797S = target: T1, EGFR^L858R+T790M+C797S (Homo sapiens, UniProt P00533, C797S/L858R/T790M); test: EGFR protein degradation test (Western blot) in Ba/F3 cells expressing mutant EGFR L858R+T790M+C797S (LTC); format: cell-based; conditions: compounds at 0.1 μM and 1 μM, 24 hours, Western blot with EGFR antibody
T1 construct: expressed in transfected cells; host or cells: Ba/F3
Protocol: as §1, §2

T1 sequence (P00533 25-1210 T790M/C797S/L858R): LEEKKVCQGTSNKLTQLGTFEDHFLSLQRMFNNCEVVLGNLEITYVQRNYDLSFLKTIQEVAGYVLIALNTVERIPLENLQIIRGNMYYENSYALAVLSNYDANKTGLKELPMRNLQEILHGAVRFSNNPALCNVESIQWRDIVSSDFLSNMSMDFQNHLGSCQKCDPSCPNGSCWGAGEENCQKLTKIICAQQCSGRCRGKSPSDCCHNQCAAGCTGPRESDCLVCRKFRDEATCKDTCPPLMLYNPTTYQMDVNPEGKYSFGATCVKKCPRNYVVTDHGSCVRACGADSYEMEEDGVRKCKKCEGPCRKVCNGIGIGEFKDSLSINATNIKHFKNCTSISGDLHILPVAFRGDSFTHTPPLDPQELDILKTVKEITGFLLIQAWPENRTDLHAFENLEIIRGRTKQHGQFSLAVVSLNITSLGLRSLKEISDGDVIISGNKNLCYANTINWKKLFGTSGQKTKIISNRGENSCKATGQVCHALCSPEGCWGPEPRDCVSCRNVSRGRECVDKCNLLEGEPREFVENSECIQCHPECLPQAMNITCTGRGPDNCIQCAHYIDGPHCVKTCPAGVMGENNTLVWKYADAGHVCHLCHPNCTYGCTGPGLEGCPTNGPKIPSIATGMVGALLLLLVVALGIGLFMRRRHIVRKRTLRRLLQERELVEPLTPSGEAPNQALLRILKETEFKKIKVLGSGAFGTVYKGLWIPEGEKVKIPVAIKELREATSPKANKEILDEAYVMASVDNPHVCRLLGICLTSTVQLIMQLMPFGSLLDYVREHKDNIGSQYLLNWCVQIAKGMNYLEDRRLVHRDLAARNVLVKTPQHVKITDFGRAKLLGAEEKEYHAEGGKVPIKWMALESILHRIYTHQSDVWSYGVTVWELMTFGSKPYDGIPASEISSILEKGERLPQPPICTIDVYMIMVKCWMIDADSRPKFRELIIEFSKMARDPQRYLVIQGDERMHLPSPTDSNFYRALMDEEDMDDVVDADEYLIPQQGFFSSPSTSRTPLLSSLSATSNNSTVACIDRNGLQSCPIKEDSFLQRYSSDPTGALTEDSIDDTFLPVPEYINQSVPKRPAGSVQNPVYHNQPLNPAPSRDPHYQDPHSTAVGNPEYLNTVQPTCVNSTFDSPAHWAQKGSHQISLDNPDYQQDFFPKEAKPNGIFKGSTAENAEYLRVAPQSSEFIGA

Row | SMILES | LTC (EGFR^L858R+T790M+C797S) protein degradation (EGFR^L858R+T790M+C797S) | DTC (EGFR^del19+T790M+C797S) protein degradation (EGFR^del19+T790M+C797S)
1 | COc1cc(N2CCC3(CCN(CC(=O)N[C@H](C(=O)N4C[C@H](O)CC4C(=O)NCc4ccc(-c5scnc5C)cc4)C(C)(C)C)CC3)CC2)ccc1Nc1ncc(Cl)c(Nc2ccccc2N(C)S(C)(=O)=O)n1 (stereo in doubt) [Compound 31, (2R,4R)-1-((S)-2-(2-(9-(4-((5-chloro-4-((2-(N-methylmethylsulfonamido)phenyl)amino)pyrimidin-2-yl)amino)-3-methoxyphenyl)-3,9-diazaspiro[5,5]undecan-3-yl)acetamido)-3,3-dimethylbutanoyl)-4-hydroxy-N-(4-(4-methylthiazol-5-yl)benzyl)pyrrolidin-2-carboxamide] | + (Protein degradation 20~80%) | ++ (Protein degradation > 80%)
2 | COc1cc(N2CCN(CC3CCN(CC(=O)N[C@H](C(=O)N4C[C@H](O)CC4C(=O)NCc4ccc(-c5scnc5C)cc4)C4CC4)CC3)CC2)ccc1Nc1ncc(Cl)c(Nc2ccccc2N(C)S(C)(=O)=O)n1 (stereo in doubt) [Compound 55, (2R,4R)-1-((S)-2-(2-(4-((4-(4-((5-chloro-4-((2-(N-methylmethylsulfonamido)phenyl)amino)pyrimidin-2-yl)amino)-3-methoxyphenyl)piperazin-1-yl)methyl)piperidin-1-yl)acetamido)-2-cyclopropylacetyl)-4-hydroxy-N-(4-(4-methylthiazol-5-yl)benzyl)pyrrolidin-2-carboxamide] | − (Protein degradation < 20%) | − (Protein degradation < 20%)
3 | COc1cc(N2CCN(CC3CCN(CC(=O)N[C@H](C(=O)N4C[C@H](O)CC4C(=O)NCc4ccc(-c5scnc5C)cc4)C(C)C)CC3)CC2)ccc1Nc1ncc(Cl)c(Nc2ccccc2N(C)S(C)(=O)=O)n1 (stereo in doubt) [Compound 56, (2R,4R)-1-((2-(4-((4-(4-((5-chloro-4-((2-(N-methylmethylsulfonamido)phenyl)amino)pyrimidin-2-yl)amino)-3-methoxyphenyl)piperazin-1-yl)methyl)piperidin-1-yl)acetyl)-L-valyl)-4-hydroxy-N-(4-(4-methylthiazol-5-yl)benzyl)pyrrolidin-2-carboxamide] | − (Protein degradation < 20%) | + (Protein degradation 20~80%)
4 | COc1cc(N2CCC(N(C)CCCCOc3cccc4c3C(=O)N(C3CCC(=O)NC3=O)C4=O)CC2)ccc1Nc1ncc(Cl)c(Nc2ccccc2N(C)S(C)(=O)=O)n1 (centres unmarked) [Compound 3, N-(2-((5-chloro-2-((4-(4-((4-((2-(2,6-dioxopiperidin-3-yl)-1,3-dioxoisoindolin-4-yl)oxy)butyl)(methyl)amino)piperidin-1-yl)-2-methoxyphenyl)amino)pyrimidin-4-yl)amino)phenyl)-N-methylmethanesulfonamide] | − (Protein degradation < 20%) | − (Protein degradation < 20%)
5 | COc1cc(N2CCN(CCCCCCCCCCC(=O)Nc3cccc4c3C(=O)N(C3CCC(=O)NC3=O)C4=O)CC2)ccc1Nc1ncc(Cl)c(Nc2ccccc2N(C)S(C)(=O)=O)n1 (centres unmarked) [Compound 4, 11-(4-(4-((5-chloro-4-((2-(N-methylmethylsulfonamido)phenyl)amino)pyrimidin-2-yl)amino)-3-methoxyphenyl)piperazin-1-yl)-N-(2-(2,6-dioxopiperidin-3-yl)-1,3-dioxoisoindolin-4-yl)undecanamide] | − (Protein degradation < 20%) | − (Protein degradation < 20%)
6 | COc1cc(N2CCN(CCCCC(=O)N[C@H](C(=O)N3C[C@H](O)C[C@@H]3C(=O)NCc3ccc(-c4scnc4C)cc3)C(C)(C)C)CC2)ccc1Nc1ncc(Cl)c(Nc2ccccc2N(C)S(C)(=O)=O)n1 [Compound 6, (2R,4R)-1-((S)-2-(5-(4-(4-((5-chloro-4-((2-(N-methylmethylsulfonamido)phenyl)amino)pyrimidin-2-yl)amino)-3-methoxyphenyl)piperazin-1-yl)pentanamido)3,3-dimethylbutanoyl)4-hydroxy-N-(4-(4-methylthiazol-5-yl)benzyl)pyrrolidin-2-carboxamide] | − (Protein degradation < 20%) | + (Protein degradation 20~80%)
7 | COc1cc(N2CCC(N3CCN(CCCCC(=O)N[C@H](C(=O)N4C[C@H](O)C[C@@H]4C(=O)NCc4ccc(-c5scnc5C)cc4)C(C)(C)C)CC3)CC2)ccc1Nc1ncc(Cl)c(Nc2ccccc2N(C)S(C)(=O)=O)n1 [Compound 7, (2R,4R)-1-((S)-2-(5-(4-(1-(4-((5-chloro-4-((2-(N-methylmethylsulfonamido)phenyl)amino)pyrimidin-2-yl)amino)-3-methoxyphenyl)piperidin-4-yl)piperazin-1-yl)pentanamido)-3,3-dimethylbutanoyl)-4-hydroxy-N-(4-(4-methylthiazol-5-yl)benzyl)pyrrolidin-2-carboxamide] | − (Protein degradation < 20%) | + (Protein degradation 20~80%)
8 | COc1cc(N2CCN(CCOCCOCC(=O)N[C@H](C(=O)N3C[C@H](O)C[C@@H]3C(=O)NCc3ccc(-c4scnc4C)cc3)C(C)(C)C)CC2)ccc1Nc1ncc(Cl)c(Nc2ccccc2N(C)S(C)(=O)=O)n1 [Compound 10, (2R,4R)-1-((S)-2-(2-(2-(2-(4-(4-((5-chloro-4-((2-(N-methylmethylsulfonamido)phenyl)amino)pyrimidin-2-yl)amino)-3-methoxyphenyl)piperazin-1-yl)ethoxy)ethoxy)acetamido)-3,3-dimethylbutanoyl)-4-hydroxy-N-(4-(4-methylthiazol-5-yl)benzyl)pyrrolidin-2-carboxamide] | − (Protein degradation < 20%) | − (Protein degradation < 20%)

Second part, led by results:

Row | LTC (EGFR^L858R+T790M+C797S) protein degradation (EGFR^L858R+T790M+C797S) | SMILES | DTC (EGFR^del19+T790M+C797S) protein degradation (EGFR^del19+T790M+C797S)
9 | − (Protein degradation < 20%) | COc1cc(N2CCN(CCCCC(=O)Nc3cccc4c3C(=O)N(C3CCC(=O)NC3=O)C4=O)CC2)ccc1Nc1ncc(Cl)c(Nc2ccccc2N(C)S(C)(=O)=O)n1 (centres unmarked) [Compound 1, 5-(4-(4-((5-chloro-4-((2-(N-methylmethylsulfonamido)phenyl)amino)pyrimidin-2-yl)amino)-3-methoxyphenyl)piperazin-1-yl)-N-(2-(2,6-dioxopiperidin-3-yl)-1,3-dioxoisoindolin-4-yl)pentanamide] | − (Protein degradation < 20%)
10 | − (Protein degradation < 20%) | COc1cc(N2CCC(N3CCN(CCCCC(=O)Nc4cccc5c4C(=O)N(C4CCC(=O)NC4=O)C5=O)CC3)CC2)ccc1Nc1ncc(Cl)c(Nc2ccccc2N(C)S(C)(=O)=O)n1 (centres unmarked) [Compound 2, 5-(4-(1-(4-((5-chloro-4-((2-(N-methylmethylsulfonamido)phenyl)amino)pyrimidin-2-yl)amino)-3-methoxyphenyl)piperidin-4-yl)piperazin-1-yl)-N-(2-(2,6-dioxopiperidin-3-yl)-1,3-dioxoisoindolin-4-yl)pentanamide] | + (Protein degradation 20~80%)
11 | − (Protein degradation < 20%) | COc1cc(N2CCC(N3CCN(CCCCCCCCCCC(=O)Nc4cccc5c4C(=O)N(C4CCC(=O)NC4=O)C5=O)CC3)CC2)ccc1Nc1ncc(Cl)c(Nc2ccccc2N(C)S(C)(=O)=O)n1 (centres unmarked) [Compound 5, 11-(4-(1-(4-((5-chloro-4-((2-(N-methylmethylsulfonamido)phenyl)amino)pyrimidin-2-yl)amino)-3-methoxyphenyl)piperidin-4-yl)piperazin-1-yl)-N-(2-(2,6-dioxopiperidin-3-yl)-1,3-dioxoisoindolin-4-yl)undecanamide] | − (Protein degradation < 20%)
12 | − (Protein degradation < 20%) | COc1cc(N2CCN(CCOCCOCC(=O)Nc3cccc4c3C(=O)N(C3CCC(=O)NC3=O)C4=O)CC2)ccc1Nc1ncc(Cl)c(Nc2ccccc2N(C)S(C)(=O)=O)n1 (centres unmarked) [Compound 8, 2-(2-(2-(4-(4-((5-chloro-4-((2-(N-methylmethylsulfonamido)phenyl)amino)pyrimidin-2-yl)amino)-3-methoxyphenyl)piperazin-1-yl)ethoxy)ethoxy)-N-(2-(2,6-dioxopiperidin-3-yl)-1,3-dioxoisoindolin-4-yl)acetamide] | − (Protein degradation < 20%)
13 | − (Protein degradation < 20%) | COc1cc(N2CCC(N3CCN(CCOCCOCC(=O)Nc4cccc5c4C(=O)N(C4CCC(=O)NC4=O)C5=O)CC3)CC2)ccc1Nc1ncc(Cl)c(Nc2ccccc2N(C)S(C)(=O)=O)n1 (centres unmarked) [Compound 9, 2-(2-(2-(4-(1-(4-((5-chloro-4-((2-(N-methylmethylsulfonamido)phenyl)amino)pyrimidin-2-yl)amino)-3-methoxyphenyl)piperidin-4-yl)piperazin-1-yl)ethoxy)ethoxy)-N-(2-(2,6-dioxopiperidin-3-yl)-1,3-dioxoisoindolin-4-yl)acetamide] | − (Protein degradation < 20%)
